Reference: paper PMC7901654, “Bioisosteric Discovery of NPA101.3, a Second-Generation RET/VEGFR2 Inhibitor Optimized for Single-Agent Polypharmacology” (Journal of Medicinal Chemistry, 2020)

Columns and labels:
[1] = test system: RET and VEGFR2 in NIH3T3 RET/C634Y tumours; experiment: In vivo target (RET and VEGFR2) inhibition, Western blot of established tumours; parameters: species or system mouse; conditions: 3 mg/kg/day p.o. for 2 days, harvested 3 h after last dose
Experimental: In vivo target (RET and VEGFR2) inhibition was studied by treating animals grafted with NIH3T3 RET/C634Y cells at different doses (0.3, 1, or 3 mg/kg/day p.o.) of NPA101.3 for 2 days and then performing Western blot analysis on protein extracts. […] Then, to determine antitumorigenic activity and to better distinguish RET- and VEGFR2-mediated effects, we tested NPA101.3 in nude mice transplanted with NIH3T3 cells transformed by either RET/C634Y or HRAS/G12V. Before tumors appeared, animals were treated daily with NPA101.3 (1.0, 3.0, or 10.0 mg/kg/day) or left untreated. […] Still, VEGFR2 inhibition was detected also in RAS-driven tumors, an effect that might explain the, albeit reduced, effect of the drug on their growth (Figure S13). Importantly, as predicted, no trace of NPA101.3 demethyl metabolites was detected after 1 or 4 h from oral dosing in mice (Figure S14).
Supplementary Figure S11: In vivo target inhibition of NPA101.3 in nude mice implanted with cells transformed by RET/C634Y […] NIH3T3 RET/C634Y cells (2 x 105) were inoculated subcutaneously into the right and left dorsal portions of nude mice. When tumours reached approximately ~200 mm 3, mice (2 mice/dose) were treated by oral gavage with 3 doses (0, 24, 48 h) of the compound (0.3, 1 and 3 mg/Kg) or left untreated (NT); proteins were harvested 3 h after the last dose. […]

[2] = biological target: T1, RET/C634R (Homo sapiens, UniProt P07949, C634R); experiment: RET autophosphorylation (Y905, Y1062) Western blot in transfected fibroblasts (RAT1); assay type: cell-based; conditions: 2 h
T1 construct: expressed in transfected cells; host or cells: RAT1 fibroblasts (gift of M. Billaud)
T1 sequence (P07949 29-1072 isoform P07949-2 C634R limits assumed): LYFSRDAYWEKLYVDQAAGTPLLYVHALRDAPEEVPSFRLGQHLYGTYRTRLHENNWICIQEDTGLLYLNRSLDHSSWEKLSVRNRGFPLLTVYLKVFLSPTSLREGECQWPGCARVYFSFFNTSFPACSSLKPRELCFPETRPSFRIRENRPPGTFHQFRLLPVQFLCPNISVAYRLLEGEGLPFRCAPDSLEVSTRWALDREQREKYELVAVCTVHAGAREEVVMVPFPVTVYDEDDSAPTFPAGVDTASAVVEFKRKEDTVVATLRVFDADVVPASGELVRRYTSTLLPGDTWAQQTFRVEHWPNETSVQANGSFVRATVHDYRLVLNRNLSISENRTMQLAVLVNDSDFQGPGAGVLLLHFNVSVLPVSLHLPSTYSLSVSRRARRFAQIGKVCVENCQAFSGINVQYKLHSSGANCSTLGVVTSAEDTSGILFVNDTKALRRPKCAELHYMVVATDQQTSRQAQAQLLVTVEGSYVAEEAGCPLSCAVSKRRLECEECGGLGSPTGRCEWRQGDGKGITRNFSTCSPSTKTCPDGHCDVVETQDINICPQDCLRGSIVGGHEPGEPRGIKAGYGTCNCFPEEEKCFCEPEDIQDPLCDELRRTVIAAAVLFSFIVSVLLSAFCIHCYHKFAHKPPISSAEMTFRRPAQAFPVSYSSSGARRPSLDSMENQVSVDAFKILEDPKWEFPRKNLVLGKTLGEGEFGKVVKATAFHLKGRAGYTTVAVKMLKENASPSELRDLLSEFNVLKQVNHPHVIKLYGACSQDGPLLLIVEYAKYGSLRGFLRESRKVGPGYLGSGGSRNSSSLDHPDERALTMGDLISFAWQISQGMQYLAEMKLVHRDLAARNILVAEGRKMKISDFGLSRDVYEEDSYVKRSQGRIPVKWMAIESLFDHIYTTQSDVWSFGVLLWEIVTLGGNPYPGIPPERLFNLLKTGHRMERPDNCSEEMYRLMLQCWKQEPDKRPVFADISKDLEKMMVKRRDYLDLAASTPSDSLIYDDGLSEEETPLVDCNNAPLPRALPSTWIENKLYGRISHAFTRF
Experimental: Fibroblasts transfected with RET/C634R were treated with increasing doses of NPA101.3, ranging from 0.1 to 10.0 nM. RET autophosphorylation was assessed by Western blotting using two different antibodies that can recognize phosphorylated Y905, located in the RET kinase activation loop, or Y1062, a multidocking site involved in RET downstream signaling.[41]
Figure 4 NPA101.3-mediated inhibition of phosphorylation and signaling of oncogenic RET mutants and VEGFR2 in intact cells. Serum-starved RAT1 cells exogenously expressing the (A and B) indicated RET point mutants or (C) NIH3T3 cells exogenously expressing the indicated RET rearranged mutants were treated for 2 h with the indicated concentrations of the compound. Total cell lysates (50 μg) were subjected to immunoblotting with anti-phospho-Y1062 (αp1062) and anti-phospho-Y905 (αp905) RET antibodies. The blots were normalized using the anti-RET (αRET) antibody. (D) HEK293 cells were transiently transfected with human VEGFR2; 36 h after transfection, cells were serum starved for 12 h. The indicated doses of the compound or vehicle (NT) were added for 2 h, and then VEGFA (100 ng/mL) stimulation was applied for 15 min. […]
Protein lysates were prepared according to standard procedures. […] Immune complexes were detected with the enhanced chemiluminescence kit (Amersham Pharmacia Biotech, Little Chalfont, U.K.). […]

[3] = test system: TT (RET/C634W), MZ-CRC-1 (RET/M918T), TPC-1 (CCDC6-RET); experiment: RET autophosphorylation and SHC/MAPK signalling in RET mutant human cancer cell lines; assay type: cell-based; conditions: 2 h treatment
Experimental: NPA101.3 inhibited RET autophosphorylation and signaling along the SHC/MAPK pathway in human cancer cell lines endogenously expressing RET oncogenic variants, including MTC cell lines, TT (RET/C634W) and MZ-CRC-1 (RET/M918T), and PTC cell line TPC-1 (CCDC6-RET); in the lung adenocarcinoma cell line Lc-2/ad (CCDC6-RET), only RET and SHC (but not MAPK) dephosphorylation was detectable (Figure S4).
Protein lysates were prepared according to standard procedures. Briefly, cells were lysed in a buffer containing 50 mM N-2-hydroxyethylpiperazine-N′-2-ethanesulfonic acid (HEPES; pH 7.5), 1% (v/v) Triton X-100, 150 mM NaCl, 5 mM EGTA, 50 mM NaF, 20 mM sodium pyrophosphate, 1 mM sodium vanadate, 2 mM phenylmethanesulfonyl fluoride (PMSF), and 1 μg/mL aprotinin. Lysates were clarified by centrifugation at 10000g for 15 min. […] Immune complexes were detected with the enhanced chemiluminescence kit (Amersham Pharmacia Biotech, Little Chalfont, U.K.). Anti-phospho-SHC (#Y317), which recognizes SHC protein when phosphorylated on Y317, was from Upstate Biotechnology Inc. (Lake Placid, NY). Anti-SHC (H-108) was from Santa Cruz Biotechnology (Santa Cruz, CA). Anti-MAPK (9101) and anti-phospho-MAPK (9102), specific for p42/44MAPK (ERK1/2) phosphorylated on Thr202/Tyr204, antibodies were from Cell Signaling Technologies (Danvers, MA). […]

CC(C)(C)c1cc(NC(=O)Cc2ccc(-n3cnc4cc(-c5ccc(S(C)(=O)=O)cc5)ccc43)cc2)no1 [NPA101.3]
RET autophosphorylation and signaling and VEGFR2 phosphorylation in tumours [1]: strongly inhibited
RET phosphorylation (Y905, Y1062) ([2]; 0.3 nM): started to be inhibited
RET phosphorylation (Y905, Y1062) ([2]; 3.0 nM): almost completely blocked
RET autophosphorylation and signaling along the SHC/MAPK pathway [3]: inhibited
